Results from patent US9512140B2, “(Thieno[2,3-b][1,5]benzoxazepin-4-yl)piperazin-1-yl compounds as dual activity H1 inverse agonists/5-HT2A antagonists” (priority 2011, dated 2016).
Structures can show the parent of a compound that is named as a salt.

Tests used:
5-HT2A Receptor = biological target: T1, 5-HT2A Receptor (Rattus norvegicus, UniProt P14842); test: 5-HT2A receptor occupancy (MDL 100907 tracer); format: in vivo; conditions: oral gavage, RO 1 hr. after dosing
T1 construct: from tissue; host or cells: rat brain (frontal cortex against cerebellum), in vivo
Procedure: Briefly, male Sprague-Dawley rats (Harlan Sprague-Dawley, Indianapolis, Ind.) weighing approximately 230-280 grams are given ad lib access to food and water until the beginning of the 3-hr. experimental protocol. 1 mg/kg ketanserin (non-selective 5-HT2A antagonist) is used as a positive control to establish assay validity. Test compounds or control are administered by oral gavage in a vehicle comprised of 20% hydroxypropyl beta-cyclodextrin. MDL 100907 ((R)-(+)-α-(2,3-Dimethoxyphenyl)-1-[2-(4-fluorophenyl)ethyl]-4-piperidinemethanol), a selective 5-HT2A antagonist, is used as a tracer. […] It is at the time of tracer administration that RO is considered to be measured. […] The level of MDL 100907 tracer is measured in each cortical and cerebellar sample. RO is calculated using the well-established ratio method which employs a region of high receptor density representative of total binding (frontal cortex) normalized by an area without or with very low levels of receptor (cerebellum). […]
Cortex and cerebellar samples are weighed and placed in conical centrifuge tubes on ice. […] Standards are prepared by adding known quantities of analyte to brain tissue samples from non-treated rats and processing as described above. […]

Adrenergic alpha1B = Adrenergic alpha1B (Homo sapiens, UniProt P35368); test: Adrenergic alpha1B binding
Text: (§1) Further, the compounds of the invention may be tested in binding assays and functional activity assays by well known methods for other physiologically important receptors such as, but not limited to, the hERO channel, other serotonin receptors (specifically 5-HT1B, 5-HT1D, receptors, lack of agonist activity at 5-HT2B receptors, 5-HT2C, 5-HT5, 5-HT6, and 5-HT7 receptors), dopaminergic receptors (specifically D1, D2, and D3), GABAA receptors, adrenergic receptors and monoamine transporters.

Norepinephrine Transport = Norepinephrine Transport (Homo sapiens, UniProt P23975); test: Norepinephrine transporter binding
Text: as §1

Chain of Adrenergic alpha1B (P35368 whole entry): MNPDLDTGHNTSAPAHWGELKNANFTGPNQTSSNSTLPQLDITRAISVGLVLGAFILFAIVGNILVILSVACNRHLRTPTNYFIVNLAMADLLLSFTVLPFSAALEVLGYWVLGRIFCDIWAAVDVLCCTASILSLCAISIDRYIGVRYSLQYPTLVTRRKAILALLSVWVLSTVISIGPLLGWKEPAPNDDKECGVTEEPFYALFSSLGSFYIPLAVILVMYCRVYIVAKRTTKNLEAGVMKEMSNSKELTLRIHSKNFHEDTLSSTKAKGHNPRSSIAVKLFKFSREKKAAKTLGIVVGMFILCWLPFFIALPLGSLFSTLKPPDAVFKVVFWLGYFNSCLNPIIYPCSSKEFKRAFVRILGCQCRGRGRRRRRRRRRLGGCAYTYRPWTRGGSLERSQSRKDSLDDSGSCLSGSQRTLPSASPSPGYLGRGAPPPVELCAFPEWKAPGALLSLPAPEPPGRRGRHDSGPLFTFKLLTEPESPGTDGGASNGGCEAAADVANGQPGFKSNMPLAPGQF
T1 sequence (P14842 whole entry): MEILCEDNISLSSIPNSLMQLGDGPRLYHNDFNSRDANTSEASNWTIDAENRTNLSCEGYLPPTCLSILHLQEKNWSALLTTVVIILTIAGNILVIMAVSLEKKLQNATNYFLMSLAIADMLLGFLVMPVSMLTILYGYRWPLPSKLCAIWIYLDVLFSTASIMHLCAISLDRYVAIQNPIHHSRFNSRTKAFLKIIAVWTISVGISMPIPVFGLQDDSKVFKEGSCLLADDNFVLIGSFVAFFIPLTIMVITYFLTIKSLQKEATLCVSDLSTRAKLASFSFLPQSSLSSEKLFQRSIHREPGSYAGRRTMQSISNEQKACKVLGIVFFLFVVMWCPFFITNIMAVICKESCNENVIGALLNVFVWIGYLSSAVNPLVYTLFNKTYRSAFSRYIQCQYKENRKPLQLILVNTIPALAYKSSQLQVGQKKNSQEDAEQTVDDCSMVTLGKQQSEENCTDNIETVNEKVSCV
Chain of Norepinephrine Transport (P23975 whole entry): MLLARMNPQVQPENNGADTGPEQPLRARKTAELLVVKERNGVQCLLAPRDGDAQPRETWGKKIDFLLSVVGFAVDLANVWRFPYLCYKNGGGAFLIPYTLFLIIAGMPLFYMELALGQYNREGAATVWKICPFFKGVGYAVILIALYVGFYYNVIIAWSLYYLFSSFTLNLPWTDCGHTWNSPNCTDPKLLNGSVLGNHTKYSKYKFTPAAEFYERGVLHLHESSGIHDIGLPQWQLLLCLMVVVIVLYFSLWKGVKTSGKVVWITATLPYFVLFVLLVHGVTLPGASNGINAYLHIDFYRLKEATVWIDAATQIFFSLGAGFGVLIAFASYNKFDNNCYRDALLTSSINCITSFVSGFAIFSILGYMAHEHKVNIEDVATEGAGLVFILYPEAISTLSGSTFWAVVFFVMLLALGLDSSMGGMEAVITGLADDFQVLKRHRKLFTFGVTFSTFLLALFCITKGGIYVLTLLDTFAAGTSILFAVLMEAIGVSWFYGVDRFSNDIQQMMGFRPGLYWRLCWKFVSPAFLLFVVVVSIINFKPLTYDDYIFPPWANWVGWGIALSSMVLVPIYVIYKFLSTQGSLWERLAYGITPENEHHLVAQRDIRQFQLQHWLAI

Work on `Cc1ccc2c(c1)Oc1sc(C)cc1C(N1CCN(CC(C)(C)C(=O)O)CC1)=N2` [Example 2, 3-[4-(2,8-Dimethylthieno[2,3-b][1,5]benzoxazepin-4-yl)piperazin-1-yl]-2,2-dimethyl-propanoic acid dihydrochloride] yielded an ED50 (5-HT2A Receptor) of 0.09 mg/kg, a Ki (Adrenergic alpha1B) of over 16.2 µM and a Ki (Norepinephrine Transport) of over 0.674 µM.
